One experiment concerns marrow stromal cells. Briefly: Osteoinductive properties (osteoblast differentiation markers: ALP activity, osteocalcin mRNA, mineralization). The settings on record: induction of osteoblast differentiation markers. It counts as cell-based. The source says: Oxysterols discussed in this application include those designated as Oxy22, Oxy26, Oxy27, Oxy28, Oxy39, Oxy40, Oxy41, Oxy42, Oxy48, Oxy49, Oxy20, Oxy34, Oxy36, Oxy38, Oxy50, Oxy51, Oxy52, and Oxy53. At least the following oxysterols have been identified as osteoinductive: Oxy22, Oxy26, Oxy27, Oxy28, Oxy39, Oxy40, Oxy41, Oxy42, Oxy48, Oxy49, Oxy50, Oxy51, Oxy52, and Oxy53. The osteoinductive properties of these oxysterols is shown by their ability to induce the expression of various osteoblast differentiation markers, including alkaline phosphatase activity, osteocalcin mRNA expression, and mineralization. These oxysterols are activators of the hedgehog signaling pathway.

Experiment [1] concerns M2-10B4 marrow stromal cells. Briefly: Alkaline phosphatase (ALP) activity assay. Particulars: for fold induction at 2.5 µM / fold induction at 5 µM / fold induction at 1.25 µM: M210B4, 72 h; for Alkaline phosphatase activity versus control vehicle (significance): 1.25 μM, 3 days, p>0.05.
Experimental: The protocol is a modification of alkaline phosphatase assay kit from Sigma. Cells are cultured in 24-well tissue culture plates. After treatments with test agents, cells are rinsed twice with PBS and scraped into 200 ml of lysis buffer (0.2% NP-40 in 1 mM MgCl2) and sonicated for 10 seconds. Next, 1 ml of reaction mixture is added to each well. Reaction mixture is 221 alkaline buffer (Sigma): stock substrate solution (1:1). Stock substrate solution is prepared by dissolving 40 mg of Sigma 104 phosphatase substrate in 10 ml of ddH2O. After addition of reaction mixture to lysed cells, incubation is performed for 30 minutes at 37 C. […] The reaction is stopped by the addition of 12 ml of 1N NaOH to each well, and absorbance is determined at 405 nm. Alkaline phosphatase activity is calculated using p-nitrophenol as a standard, according to Sigma kit's instructions. Results are normalized to total protein in each well determined using the Bio-Rad protein assay solution (Bio-Rad Laboratories).
M2-10B4 marrow stromal cells were treated with oxysterols at various doses for 3 days after which they were collected and analyzed by calorimetric assay for alkaline phosphatase activity (a marker of osteoblastic differentiation) (Table 1); the alkaline phosphatase assay described above was used.
M2-10B4 marrow stromal cells were treated with oxysterols at various doses for 3 days after which they were collected and analyzed by colorimetric assay for alkaline phosphatase activity (a marker of osteoblastic differentiation) (Table 2); the alkaline phosphatase assay described above was used.
M2-10B4 bone marrow stromal cells were treated in culture with control vehicle (C) or various oxysterol (Oxy) molecules as indicated at either 1.25 (1) or 2.5 (2) μM concentrations. After 3 days of treatment, alkaline phosphatase activity as a measure of early osteogenic differentiation of cells was measured in whole cell lysates (See FIG. 9 and Table 3); the alkaline phosphatase assay described above was used.
Setting [2] is: read-out: Fold Induction in alkaline phosphatase activity compared to control untreated cells.
Setting [3] is: read-out: Fold Induction in alkaline phosphatase activity over control untreated cells.

Read-outs that look alike come from different tables or passages of the source.

Regarding `CC(=O)O[C@H]1CC2C3CCC([C@@](C)(O)CCCC(C)C)[C@@]3(C)CCC2[C@@]2(C)CC[C@H](O)C[C@H]12` (stereo partly shown) [Oxy28], the Osteoinductive property result with marrow stromal cells was “osteoinductive”. Also, in experiment [1] (setting [2]), the fold induction at 2.5 µM came out at 59 and the fold induction at 5 µM came out at 75.

As to `CC(CO)CCC[C@](C)(O)[C@H]1CC[C@H]2[C@@H]3C[C@H](O)[C@H]4C[C@@H](O)CC[C@]4(C)[C@H]3CC[C@@]21C` (stereo partly drawn) [Oxy48, (3S,5S,6S,8R,9S,10R,13S,14S,17S)-17-((2S)-2,7-Dihydroxy-6-methylheptan-2-yl)-10,13-dimethylliexadecahydro-1H-cyclopenta[a]phenanthrene-3,6-diol], the Osteoinductive property result in the experiment on marrow stromal cells is “osteoinductive”. Also, in experiment [1] (setting [2]), the fold induction at 2.5 µM is 11 and the fold induction at 5 µM worked out at 43.

Regarding `C[C@]12CC[C@H]3[C@@H](CC=C4C[C@@H](O)CC[C@@]43C)[C@@H]1CC[C@@H]2[C@@](C)(O)CCc1ccccc1F` [Oxy39, (3S,8S,9S,10R,13S,14S,17S)-17-((S)-4-(2-Fluorophenyl)-2-hydroxybutan-2-yl)-10,13-dimethyl-2,3,4,7,8,9,10,11,12,13,14,15,16,17-tetradecahydro-1H-cyclopenta[a]phen-anthren-3-ol], the Osteoinductive property result in the experiment on marrow stromal cells is “osteoinductive”. Besides, in experiment [1] (setting [2]), the fold induction at 2.5 µM stood at 52 and the fold induction at 5 µM was found to be 148.

On to `C[C@]12CC[C@H](O)C[C@@H]1[C@@H](O)C[C@@H]1[C@@H]2CC[C@@]2(C)[C@H]1CC[C@@H]2[C@@](C)(O)CCCc1cccs1` [Oxy50, (3S,5S,6S,8R,9S,10R,13S,14S,17S)-17-((S)-2-hydroxy-5-(thiophen-2-yl)pentan-2-yl)-10,13-dimethylhexadecahydro-1H-cyclopenta[a]phenanthrene-3,6-diol], for which, in the experiment with marrow stromal cells, the Osteoinductive property result is “osteoinductive”. Besides, in experiment [1] (setting [3]), the fold induction at 1.25 µM stood at 25 and the fold induction at 2.5 µM was found to be 65.

Take `C[C@]12CC[C@H]3[C@@H](CC=C4C[C@@H](O)CC[C@@]43C)[C@@H]1CC[C@@H]2[C@@](C)(O)CCCc1cccs1` [Oxy42, (3S,8S,9S,10R,13S,14S,17S)-17-((S)-2-Hydroxy-5-(thiophen-2-yl)pentan-2-yl)-10,13-dimethyl-2,3,4,7,8,9,10,11,12,13,14,15,16,17-tetradecahydro-1H-cyclopenta[a]phen-anthren-3-ol]: the Osteoinductive property entry with marrow stromal cells was “osteoinductive”. Besides, in experiment [1] (setting [2]), the fold induction at 2.5 µM is 166 and the fold induction at 5 µM turned out to be 290.

As to `C[C@]12CC[C@H](O)C[C@@H]1[C@@H](O)C[C@@H]1[C@@H]2CC[C@@]2(C)[C@H]1CC[C@@H]2[C@@](C)(O)CC#Cc1cccs1` [Oxy51, (3S,5S,6S,8R,9S,10R,13S,14S,17S)-17-((S)-2-hydroxy-5-(thiophen-2-yl)pent-4-yn-2-yl)-10,13-dimethylhexadecahydro-1H-cyclopenta[a]phenanthrene-3,6-diol], the Osteoinductive property result in the experiment with marrow stromal cells is “osteoinductive”. Besides, the “Alkaline phosphatase activity versus control vehicle (significance)” value in experiment [1] is “not significant”. Moreover, in experiment [1] (setting [3]), the fold induction at 1.25 µM was 3 and the fold induction at 2.5 µM was 20.

Regarding `C=C(C)CCC[C@](C)(O)[C@H]1CC[C@H]2[C@@H]3C[C@H](OC(C)=O)[C@H]4C[C@@H](O)CC[C@]4(C)[C@H]3CC[C@@]21C` [Oxy41, (3S,5S,6S,8R,9S,10R,13S,14S,17S)-3-Hydroxy-17-((S)-2-hydroxy-6-methylhept-6-en-2-yl)-10,13-dimethylhexadecahydro-1H-cyclopenta[a]phenanthren-6-yl acetate], the Osteoinductive property entry with marrow stromal cells is “osteoinductive”. In addition, in experiment [1] (setting [2]), the fold induction at 2.5 µM turned out to be 46 and the fold induction at 5 µM is 175.

Consider `C[C@]12CC[C@H](O)C[C@@H]1[C@@H](O)C[C@@H]1[C@@H]2CC[C@@]2(C)[C@H]1CC[C@@H]2[C@@](C)(O)CCCc1ccccc1` [Oxy53, (3S,5S,6S,8R,9S,10R,13S,14S,17S)-17-((S)-2-hydroxy-5-phenylpentan-2-yl)-10,13-dimethylhexadecahydro-1H-cyclopenta[a]phenanthrene-3,6-diol], for which the Osteoinductive property entry in the experiment with marrow stromal cells is listed as “osteoinductive”. The “Alkaline phosphatase activity versus control vehicle (significance)” value in experiment [1] was “not significant”. In experiment [1] (setting [3]), the fold induction at 1.25 µM was 2 and the fold induction at 2.5 µM came to 11.

Consider `C[C@]12CCC3C(CC=C4C[C@@H](O)CC[C@@]43C)C1CCC2[C@@](C)(O)CCCc1ccccc1` (stereo partly shown) [Oxy22], for which the Osteoinductive property result in the experiment on marrow stromal cells is reported as “osteoinductive”. In experiment [1] (setting [2]), the fold induction at 2.5 µM stood at 4 and the fold induction at 5 µM amounted to 9.

As for `CC(CO)CCC[C@](C)(O)[C@H]1CC[C@H]2[C@@H]3CC=C4C[C@@H](O)CC[C@]4(C)[C@H]3CC[C@@]21C` (stereo partly shown) [Oxy40], the Osteoinductive property entry in the experiment on marrow stromal cells is reported as “osteoinductive”. Also, in experiment [1] (setting [2]), the fold induction at 2.5 µM is 28 and the fold induction at 5 µM amounted to 105.

Consider `CC(C)C/C=C/[C@](C)(O)C1CC[C@H]2[C@@H]3CC=C4C[C@@H](O)CC[C@]4(C)[C@H]3CC[C@]12C` (stereo partly drawn) [Oxy20, (3S,8S,9S,10R,13S,14S)-17-((S,E)-2-hydroxy-6-methylhept-3-en-2-yl)-10,13-dimethyl-2,3,4,7,8,9,10,11,12,13,14,15,16,17-tetradecahydro-1H-cyclopenta[a]phenanthren-3-ol], for which, in experiment [1] (setting [2]), the fold induction at 2.5 µM is 36 and the fold induction at 5 µM worked out at 68.

With `C[C@]12CC[C@H](O)C[C@@H]1[C@@H](O)C[C@@H]1[C@@H]2CC[C@@]2(C)[C@H]1CC[C@@H]2[C@@](C)(O)CCc1ccccc1` [Oxy52, (3S,5S,6S,8R,9S,10R,13S,14S,17S)-17-((S)-2-hydroxy-4-phenylbutan-2-yl)-10,13-dimethylhexadecahydro-1H-cyclopenta[a]phenanthrene-3,6-diol], the Osteoinductive property result in the experiment on marrow stromal cells is “osteoinductive”. Besides, in experiment [1] (setting [3]), the fold induction at 1.25 µM was 5 and the fold induction at 2.5 µM came out at 22.

`C[C@]12CC[C@H]3[C@@H](CC=C4C[C@@H](O)CC[C@@]43C)[C@@H]1CC[C@@H]2[C@@](C)(O)CCc1ccccc1` [Oxy27, (3S,8S,9S,10R,13S,14S,17S)-17-((S)-2-Hydroxy-4-phenylbutan-2-yl)-10,13-dimethyl-2,3,4,7,8,9,10,11,12,13,14,15,16,17-tetradecahydro-1H-cyclopenta[a]phenanthren-3-ol]: in the experiment with marrow stromal cells, the Osteoinductive property result was “osteoinductive”. Besides, in experiment [1] (setting [2]), the fold induction at 2.5 µM was found to be 17 and the fold induction at 5 µM turned out to be 42.

In the case of `C[C@]12CC[C@H]3[C@@H](CC=C4C[C@@H](O)CC[C@@]43C)[C@@H]1CC[C@@H]2[C@@](C)(O)CC#Cc1cccs1` [Oxy26, (3S,8S,9S,10R,13S,14S,17S)-17-((S)-2-Hydroxy-5-(thiophen-2-yl)pent-4-yn-2-yl)-10,13-dimethyl-2,3,4,7,8,9,10,11,12,13,14,15,16,17-tetradecahydro-1H-cyclopenta-[a]phenanthren-3-ol], the Osteoinductive property result in the experiment on marrow stromal cells is on record as “osteoinductive”. In addition, in experiment [1] (setting [2]), the fold induction at 2.5 µM worked out at 27 and the fold induction at 5 µM was 76.

Source of the values: patent US9526737B2, “Oxysterols for activation of hedgehog signaling, osteoinduction, antiadipogenesis, and Wnt signaling” (THE REGENTS OF THE UNIVERSITY OF CALIFORNIA, priority 2007, dated 2016).
